Earlier results in patent US20020110580A1, “Nutritional composition for improving the efficacy of a lipase inhibitor” (priority 2000, published 2002).

Tests used:
[1] = individuals receiving CCK

Row | Molecule | gastric emptying of both the solid and fat phases of a mixed meal | CCK release (mixed meal) | reduction in caloric intake [1]
1 | CCCCCCCCCCC[C@@H](C[C@@H]1OC(=O)[C@H]1CCCCCC)OC(=O)[C@H](CC(C)C)NC=O [Orlistat, tetrahydrolipstatin] | accelerated | decreased | 
2 | Cholecystokinin (peptide, UniProt P06307 21-115, looked up, Cholecystokinin) Cholecystokinin: QPVPPADPAGSGLQRAEEAPRRQLRVSQRTDGESRAHLGALLARYIQQARKAPSGRMSIVKNLQNLDPSHRISDRDYMGWMDFGRRSAEEYEYPS |  |  | 16-22%
